This note sets out measurements from US9518064B2, “Imidazothiadiazole and imidazopyridazine derivatives as protease activated receptor 4 (PAR4) inhibitors for treating platelet aggregation” (BRISTOL-MYERS SQUIBB COMPANY, priority 2012, dated 2016).

PAR4, sequence (Q96RI0 18-385): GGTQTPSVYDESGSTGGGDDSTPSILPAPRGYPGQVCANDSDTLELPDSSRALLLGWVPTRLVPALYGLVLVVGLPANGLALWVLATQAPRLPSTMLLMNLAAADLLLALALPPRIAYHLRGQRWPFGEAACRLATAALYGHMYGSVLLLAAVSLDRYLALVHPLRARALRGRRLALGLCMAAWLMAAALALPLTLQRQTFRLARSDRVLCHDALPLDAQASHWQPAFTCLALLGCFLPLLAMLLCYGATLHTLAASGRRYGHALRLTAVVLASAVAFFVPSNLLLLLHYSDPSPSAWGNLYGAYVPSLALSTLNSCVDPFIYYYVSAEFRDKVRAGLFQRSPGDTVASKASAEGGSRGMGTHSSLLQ

The assay concerns the target PAR4 (Homo sapiens (Human), UniProt Q96RI0). Briefly: FLIPR assay in PAR4-expressing HEK293 cells (calcium mobilization). Particulars: PAR4 antagonist activity, FLIPR assay as described in Example A. The assay is classed as cell-based. In general terms: Calcium assays in cells follow changes in intracellular calcium, usually with a dye or a luminescent sensor.
A word on the IC50: it is the concentration needed to halve the response being measured. For the compound `COc1ncc(-c2cccc(COc3cc(Cl)cc4oc(-c5cn6nc(OC)sc6n5)cc34)c2)cn1` [Example 107, 6-(6-Chloro-4-((3-(2-methoxypyrimidin-5-yl)benzyl)oxy)benzofuran-2-yl)-2-methoxyimidazo[2,1-b][1,3,4]thiadiazole], the IC50 came to 1.09 nM.
Next, `COc1cc(OCc2cccc(-c3ccc4nncn4c3)c2)c2cc(-c3cn4nc(OC)sc4n3)oc2c1` [Example 22]: 23.6 nM.
As to `COc1cc(OCc2cccc(-c3csc4ccccc34)c2)c2cc(-c3cn4nc(OC)sc4n3)oc2c1` [Example 12], the IC50 turned out to be 3.76 nM.
For `COc1cc(OCc2cccc(-c3ccnc(C)c3)c2)c2cc(-c3cn4nc(OC)sc4n3)oc2c1` [Example 27], the IC50 is 4.29 nM.
Next, `COc1cc(OCc2cccc(-c3ncc(Cl)cc3Cl)c2)c2cc(-c3cn4nc(OC)sc4n3)oc2c1` [Example 54]: 1.47 nM; `COc1cc(OCc2cccc(-c3ccc(C(C)O)cn3)c2)c2cc(-c3cn4nc(OC)sc4n3)oc2c1` (centres unmarked) [Example 87, 1-(6-(3-(((6-Methoxy-2-(2-methoxyimidazo[2,1-b][1,3,4]thiadiazol-6-yl)benzofuran-4-yl)oxy)methyl)phenyl)pyridin-3-yl)ethanol]: 1.11 nM.
As for `COc1cc(OCc2cccc(-c3ccnc(F)c3)c2)c2cc(-c3cn4nc(OC)sc4n3)oc2c1` [Example 55], the half-inhibitory concentration (IC50) was found to be 0.69 nM.
To `COc1cc(OCc2cccc(-c3cnc(OC)nc3)n2)c2cc(-c3cn4nc(OC)sc4n3)oc2c1` [Example 77] belongs 2.18 nM.
To `COc1cc(OCc2cccc(-c3cccnc3F)c2)c2cc(-c3cn4nc(OC)sc4n3)oc2c1` [Example 45] belongs 1.03 nM.
As for `COc1cc(OCc2cccc(-c3ccc(C)cn3)c2)c2cc(-c3cn4nc(OC)sc4n3)oc2c1` [Example 25], the half-maximal inhibitory concentration (IC50) came out at 2.04 nM.
To `COc1cc(OCc2cccc(-c3cnc(OC)nc3)c2)c2cc(-c3cn4nc(C)ccc4n3)oc2c1` [Example 82, 2-(6-Methoxy-4-((3-(2-methoxypyrimidin-5-yl)benzyl)oxy)benzofuran-2-yl)-6-methylimidazo[1,2-b]pyridazine] belongs 1.32 nM; to `COc1cc(COc2cc(OC)cc3oc(-c4cn5nc(OC)sc5n4)cc23)cc(-c2ccc(Cl)nc2)c1` [Example 66, 6-(4-((3-(6-Chloropyridin-3-yl)-5-methoxybenzyl)oxy)-6-methoxybenzofuran-2-yl)-2-methoxyimidazo[2,1b][1,3,4]thiadiazole], 0.57 nM; to `COc1cc(OCc2cccc(-c3ccc(Cl)nc3)c2)c2cc(-c3cn4nc(OC)sc4n3)oc2c1` [Example 56], 0.74 nM.
To `COc1cc(OCc2cccc(C3(OC)CCOCC3)n2)c2cc(-c3cn4nc(OC)sc4n3)oc2c1` [Example 111, 2-Methoxy-6-(6-methoxy-4-((6-(4-methoxytetrahydro-2H-pyran-4-yl)pyridin-2-yl)methoxy)benzofuran-2-yl)imidazo[2,1-b][1,3,4]thiadiazole] belongs 0.23 nM.
On to `COc1cc(OCc2cncc(-c3ccc(Cl)nc3)c2)c2cc(-c3cn4nc(OC)sc4n3)oc2c1` [Example 74], for which the IC50 stood at 1.57 nM.
Next, `COc1cc(OCc2cccc(-c3coc(C(N)=O)c3)c2)c2cc(-c3cn4nc(OC)sc4n3)oc2c1` [Example 41]: 8.68 nM; `COc1cc(OCc2cccc(-c3ccc(C(=O)N4CCOCC4)nc3)c2)c2cc(-c3cn4nc(OC)sc4n3)oc2c1` [Example 57]: 1.66 nM.
To `COc1cc(OCc2cccc(C3(F)CCOCC3)n2)c2cc(-c3cn4nc([C@H](C)F)sc4n3)oc2c1` [Example 114, (S)-2-(1-Fluoroethyl)-6-(4-((6-(4-fluorotetrahydro-2H-pyran-4-yl)pyridin-2-yl)methoxy)-6-methoxybenzo-furan-2-yl)imidazo[2,1-b][1,3,4]thiadiazole] belongs 0.31 nM.
As to `COc1cc(OCc2cncc(-c3ccoc3)c2)c2cc(-c3cn4nc(OC)sc4n3)oc2c1` [Example 65, 6-(4-((5-(Furan-3-yl)pyridin-3-yl)methoxy)-6-methoxybenzofuran-2-yl)-2-methoxyimidazo[2,1-b][1,3,4]thiadiazole], the IC50 is 1.08 nM.
Next, `COc1cc(OCc2ccnc(C3CC3)n2)c2cc(-c3cn4nc(OC)sc4n3)oc2c1` [Example 103]: 1.39 nM.
As to `COc1cc(OCc2cccc(-c3ccc(C(=O)N(C)C)cc3)n2)c2cc(-c3cn4nc(OC)sc4n3)oc2c1` [Example 96, 4-(6-(((6-Methoxy-2-(2-methoxyimidazo[2,1-b][1,3,4]thiadiazol-6-yl)benzofuran-4-yl)oxy)methyl)pyridin-2-yl)-N,N-dimethylbenzamide], the IC50 came out at 0.23 nM.
To `COc1cc(OCc2cccc(-c3nc(CO)c(C)s3)c2)c2cc(-c3cn4nc(OC)sc4n3)oc2c1` [Example 106, (2-(3-(((6-Methoxy-2-(2-methoxyimidazo[2,1-b][1,3,4]thiadiazol-6-yl)benzofuran-4-yl)oxy)methyl)phenyl)-5-methylthiazol-4-yl)methanol] belongs 1.59 nM.
Next, `COc1cc(OCc2cccc(C3CCOCC3)c2)c2cc(-c3cn4nc(OC)sc4n3)oc2c1` [Example 92, 2-Methoxy-6-(6-methoxy-4-((3-(tetrahydro-2H-pyran-4-yl)benzyl)oxy)benzofuran-2-yl)imidazo[2,1-b][1,3,4]thiadiazole]: 0.72 nM.
To `COc1cc(OCc2cccc(-c3ccc4nsnc4c3)c2)c2cc(-c3cn4nc(OC)sc4n3)oc2c1` [Example 20] belongs 8.54 nM; to `COc1cc(OCc2cccc(-c3cnc(F)c(C)c3)c2)c2cc(-c3cn4nc(OC)sc4n3)oc2c1` [Example 38], 0.68 nM.
Consider `COc1cc(OCc2ccnc(-c3csc(C)n3)n2)c2cc(-c3cn4nc(OC)sc4n3)oc2c1` [Example 102], for which the IC50 amounted to 0.72 nM.
In the case of `COc1cc(OCc2ccnc(-c3cccc(C#N)c3)n2)c2cc(-c3cn4nc(OC)sc4n3)oc2c1` [Example 99], the IC50 amounted to 48.7 nM.
Next, `COc1cc(OCc2cncc(-c3ccccc3)c2)c2cc(-c3cn4nc(OC)sc4n3)oc2c1` [Example 72]: 7.19 nM.
Next, `COc1cc(OCc2cccc(-c3ccsc3)c2)c2cc(-c3cn4nc(OC)sc4n3)oc2c1` [Example 9]: 1.26 nM.
To `COCOc1cnc(-c2cccc(COc3cc(OC)cc4oc(-c5cn6nc(OC)sc6n5)cc34)c2)cn1` [Example 58] belongs 1.22 nM; to `COc1cc(OCc2cccc(-c3ncccn3)c2)c2cc(-c3cn4nc(OC)sc4n3)oc2c1` [Example 3, 2-Methoxy-6-(6-methoxy-4-((3-(pyrimidin-2-yl)benzyl)oxy)benzofuran-2-yl)imidazo[2,1-b][1,3,4]thiadiazole], 3.08 nM.
Take `COc1cc(OCc2cccc(-c3cnc(OC)nc3OC)c2)c2cc(-c3cn4nc(OC)sc4n3)oc2c1` [Example 19]: the IC50 was determined as 2.42 nM.
As to `COc1cc(OCc2cccc(-c3ccc(OC4CCCCO4)cc3)c2)c2cc(-c3cn4nc(OC)sc4n3)oc2c1` (centres unmarked) [Example 88], the IC50 is 1.1 nM.
Take `COc1cc(OCc2cccc(-c3ncc(Cl)cc3F)c2)c2cc(-c3cn4nc(OC)sc4n3)oc2c1` [Example 50]: the IC50 amounted to 1.88 nM.
As to `COc1cc(OCc2cccc(C3(O)CCOCC3)n2)c2cc(-c3cn4nc(OC)sc4n3)oc2c1` [Example 109, 4-(6-(((6-Methoxy-2-(2-methoxyimidazo[2,1-b][1,3,4]thiadiazol-6-yl)benzofuran-4-yl)oxy)methyl)pyridin-2-yl)tetrahydro-2H-pyran-4-ol], the IC50 is 0.45 nM.
To `COc1cc(OCc2cccc(-c3ccc(OC4CCCCO4)cn3)c2)c2cc(-c3cn4nc(OC)sc4n3)oc2c1` (centres unmarked) [Example 89] belongs 0.79 nM.
To `COc1cc(OCc2cccc(-c3ccc(C)nc3F)c2)c2cc(-c3cn4nc(OC)sc4n3)oc2c1` [Example 39] belongs 0.53 nM; to `COc1cc(OCc2cccc(C3(F)CCOCC3)n2)c2cc(-c3cn4nc(OC)sc4n3)oc2c1` [Example 113, 6-(4-((6-(4-Fluorotetrahydro-2H-pyran-4-yl)pyridin-2-yl)methoxy)-6-methoxybenzofuran-2-yl)-2-methoxyimidazo[2,1-b][1,3,4]thiadiazole], 0.35 nM; to `COc1cc(OCc2cccc(-c3ncccc3C#N)c2)c2cc(-c3cn4nc(OC)sc4n3)oc2c1` [Example 46], 1.64 nM.
Next, `COc1cc(OCc2cccc(-c3ccc(F)cn3)c2)c2cc(-c3cn4nc(OC)sc4n3)oc2c1` [Example 14]: 1.53 nM; `COc1cc(OCc2ccnc(C3(c4ccccc4)CC3)n2)c2cc(-c3cn4nc(OC)sc4n3)oc2c1` [Example 105]: 1.06 nM.
Turning to `CCCOc1ncc(-c2cccc(COc3cc(OC)cc4oc(-c5cn6nc(OC)sc6n5)cc34)c2)cn1` [Example 37], the IC50 is 0.36 nM.
To `COc1cc(OCc2cccc(-c3ccc(F)cn3)c2)c2cc(-c3cn4nc(C(C)(F)F)sc4n3)oc2c1` [Example 67] belongs 4.54 nM; to `COc1cc(OCc2cccc(-c3ncccc3F)c2)c2cc(-c3cn4nc(OC)sc4n3)oc2c1` [Example 44], 1.21 nM.
To `COc1cc(OCc2cccc(-c3ccc(O)cn3)c2)c2cc(-c3cn4nc(OC)sc4n3)oc2c1` [Example 91] belongs 9.05 nM; to `COc1cc(OCc2cccc(-c3cnc(C#N)cn3)c2)c2cc(-c3cn4nc(OC)sc4n3)oc2c1` [Example 42], 1.05 nM.
Next, `COc1ccc(COC(C)c2ccc(-c3cccc(COc4cc(OC)cc5oc(-c6cn7nc(OC)sc7n6)cc45)c3)nc2)cc1` (centres unmarked) [Example 61]: 1 nM; `COc1cc(OCc2cc(F)cc(-c3ncc(F)cc3F)c2)c2cc(-c3cn4nc(OC)sc4n3)oc2c1` [Example 70]: 1.48 nM.
In the case of `COCCN(C)C(=O)c1ccc(-c2cccc(COc3cc(OC)cc4oc(-c5cn6nc(OC)sc6n5)cc34)c2)cn1` [Example 85, 5-(3-(((6-Methoxy-2-(2-methoxyimidazo[2,1-b][1,3,4]thiadiazol-6-yl)benzofuran-4-yl)oxy)methyl)phenyl)-N-(2-methoxyethyl)-N-methylpicolinamide], the IC50 worked out at 1.49 nM.
Next, `COc1cc(OCc2cccc(-c3cnc4ccccn34)c2)c2cc(-c3cn4nc(OC)sc4n3)oc2c1` [Example 21]: 7.34 nM.
